Eight compounds from ChEMBL document CHEMBL5465560, “Selectivity Literature for EUbOPEN Chemogenomic Library” (2024) can be followed below.

Experiment [1] addresses T1, Serine/threonine-protein kinase Chk1 (Homo sapiens) (UniProt O14757).
T1 sequence (whole entry): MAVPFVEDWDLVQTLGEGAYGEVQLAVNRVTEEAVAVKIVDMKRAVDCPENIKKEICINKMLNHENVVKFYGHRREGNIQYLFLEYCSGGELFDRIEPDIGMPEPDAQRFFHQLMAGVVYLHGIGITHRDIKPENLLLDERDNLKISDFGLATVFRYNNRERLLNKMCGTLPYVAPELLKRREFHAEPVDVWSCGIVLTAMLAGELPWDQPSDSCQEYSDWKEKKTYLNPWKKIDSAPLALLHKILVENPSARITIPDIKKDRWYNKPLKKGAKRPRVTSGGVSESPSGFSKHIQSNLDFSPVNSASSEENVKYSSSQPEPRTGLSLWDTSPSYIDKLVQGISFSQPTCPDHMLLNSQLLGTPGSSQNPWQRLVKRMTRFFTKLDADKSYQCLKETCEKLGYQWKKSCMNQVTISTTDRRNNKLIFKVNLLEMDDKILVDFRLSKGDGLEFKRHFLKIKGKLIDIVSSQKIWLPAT
As to the kind of experiment: Selectivity interaction (Upstate Kinase Profiler service (Millipore)) EUB0000056c CHEK1. Conditions: at 1 µM.

In experiment [2] the target is Receptor tyrosine-protein kinase erbB-2 (Homo sapiens, UniProt P04626). Particulars: at 10 µM.
For experiment [3], the target named is Serine/threonine-protein kinase WNK1 (Homo sapiens) (UniProt Q9H4A3). The experiment is described as follows: Selectivity interaction (KinomeScan (DiscoverX)) EUB0000695a WNK1. Conditions: at 100 nM.
Experiment [4] deals with Tyrosine-protein kinase Lyn (Homo sapiens, UniProt P07948). As to the kind of experiment: Selectivity interaction (KinomeScan (DiscoverX)) EUB0000045b LYN.
Experiment [5] addresses Myosin light chain kinase 2, skeletal/cardiac muscle (Homo sapiens) (UniProt Q9H1R3). As to the kind of experiment: Selectivity interaction (KinomeScan (DiscoverX)) EUB0000045b MYLK2.
Experiment [6] has as its target T2, Protein kinase C iota type (Homo sapiens) (UniProt P41743).
T2 sequence (whole entry): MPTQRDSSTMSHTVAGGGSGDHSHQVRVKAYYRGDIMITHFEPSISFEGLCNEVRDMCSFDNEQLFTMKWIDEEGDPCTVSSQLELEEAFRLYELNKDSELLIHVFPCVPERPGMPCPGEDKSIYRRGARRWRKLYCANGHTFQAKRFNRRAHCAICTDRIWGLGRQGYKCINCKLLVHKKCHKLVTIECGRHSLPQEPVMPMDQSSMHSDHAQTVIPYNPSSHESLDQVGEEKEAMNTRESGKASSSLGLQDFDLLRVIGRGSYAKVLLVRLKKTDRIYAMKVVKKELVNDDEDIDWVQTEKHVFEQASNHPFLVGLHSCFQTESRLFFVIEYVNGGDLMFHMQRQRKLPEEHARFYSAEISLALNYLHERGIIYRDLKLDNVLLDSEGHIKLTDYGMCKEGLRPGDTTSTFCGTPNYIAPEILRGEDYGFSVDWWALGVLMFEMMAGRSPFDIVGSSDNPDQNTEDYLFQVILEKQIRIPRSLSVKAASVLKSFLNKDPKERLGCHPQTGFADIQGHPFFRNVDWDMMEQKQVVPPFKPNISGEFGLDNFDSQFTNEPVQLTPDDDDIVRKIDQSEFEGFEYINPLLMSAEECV
As to the kind of experiment: Selectivity interaction (Kinase panel (Z-LYTE Assay)) EUB0001632a PRKCI. Conditions: at 10 µM.

Experiment [7] deals with Cyclin-dependent kinase 16 (Homo sapiens) (UniProt Q00536). As to the kind of experiment: Selectivity interaction (ActivX KiNativ screen (kinase selectivity in THP-1 cell lysates)) EUB0000639a CDK16. The experiment is classed as subcellular. Particulars: lysate, at 0.04 µM.
The target of experiment [8] is Serine/threonine-protein kinase WNK1 (Homo sapiens) (UniProt Q9H4A3). The experiment is described as follows: Selectivity interaction (Kinase panel (KiNativ target engagement assay in Jurkat cells)) EUB0001635a WNK1. In kind it is cell-based. Conditions: at 1 µM.
In experiment [9] the target is T3, Protein kinase C epsilon type (Homo sapiens) (UniProt Q02156).
T3 sequence (whole entry): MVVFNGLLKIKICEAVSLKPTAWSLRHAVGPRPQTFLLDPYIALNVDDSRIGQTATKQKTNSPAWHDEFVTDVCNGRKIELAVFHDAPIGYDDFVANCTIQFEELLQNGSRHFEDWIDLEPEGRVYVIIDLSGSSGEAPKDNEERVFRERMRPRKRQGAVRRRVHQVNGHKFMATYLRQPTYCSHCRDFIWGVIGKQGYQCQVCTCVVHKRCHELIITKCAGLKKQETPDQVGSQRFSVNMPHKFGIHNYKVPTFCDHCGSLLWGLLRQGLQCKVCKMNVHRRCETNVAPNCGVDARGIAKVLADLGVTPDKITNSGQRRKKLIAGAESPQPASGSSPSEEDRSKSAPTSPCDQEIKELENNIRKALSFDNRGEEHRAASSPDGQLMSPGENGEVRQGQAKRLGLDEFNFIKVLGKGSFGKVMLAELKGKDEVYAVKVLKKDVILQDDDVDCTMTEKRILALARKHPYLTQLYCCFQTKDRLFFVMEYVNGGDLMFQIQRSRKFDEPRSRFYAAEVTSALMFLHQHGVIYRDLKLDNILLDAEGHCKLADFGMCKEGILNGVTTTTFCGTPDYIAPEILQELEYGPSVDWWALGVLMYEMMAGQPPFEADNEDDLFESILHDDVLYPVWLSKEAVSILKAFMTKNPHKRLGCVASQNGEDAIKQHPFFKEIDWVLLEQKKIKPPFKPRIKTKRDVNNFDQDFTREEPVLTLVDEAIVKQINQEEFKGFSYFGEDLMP
The experiment is described as follows: Selectivity interaction (KinomeScan (DiscoverX)) EUB0000618a PRKCE. Conditions: at 10 µM.

Chain of Serine/threonine-protein kinase WNK1 (Homo sapiens) (Q9H4A3 whole entry, looked up): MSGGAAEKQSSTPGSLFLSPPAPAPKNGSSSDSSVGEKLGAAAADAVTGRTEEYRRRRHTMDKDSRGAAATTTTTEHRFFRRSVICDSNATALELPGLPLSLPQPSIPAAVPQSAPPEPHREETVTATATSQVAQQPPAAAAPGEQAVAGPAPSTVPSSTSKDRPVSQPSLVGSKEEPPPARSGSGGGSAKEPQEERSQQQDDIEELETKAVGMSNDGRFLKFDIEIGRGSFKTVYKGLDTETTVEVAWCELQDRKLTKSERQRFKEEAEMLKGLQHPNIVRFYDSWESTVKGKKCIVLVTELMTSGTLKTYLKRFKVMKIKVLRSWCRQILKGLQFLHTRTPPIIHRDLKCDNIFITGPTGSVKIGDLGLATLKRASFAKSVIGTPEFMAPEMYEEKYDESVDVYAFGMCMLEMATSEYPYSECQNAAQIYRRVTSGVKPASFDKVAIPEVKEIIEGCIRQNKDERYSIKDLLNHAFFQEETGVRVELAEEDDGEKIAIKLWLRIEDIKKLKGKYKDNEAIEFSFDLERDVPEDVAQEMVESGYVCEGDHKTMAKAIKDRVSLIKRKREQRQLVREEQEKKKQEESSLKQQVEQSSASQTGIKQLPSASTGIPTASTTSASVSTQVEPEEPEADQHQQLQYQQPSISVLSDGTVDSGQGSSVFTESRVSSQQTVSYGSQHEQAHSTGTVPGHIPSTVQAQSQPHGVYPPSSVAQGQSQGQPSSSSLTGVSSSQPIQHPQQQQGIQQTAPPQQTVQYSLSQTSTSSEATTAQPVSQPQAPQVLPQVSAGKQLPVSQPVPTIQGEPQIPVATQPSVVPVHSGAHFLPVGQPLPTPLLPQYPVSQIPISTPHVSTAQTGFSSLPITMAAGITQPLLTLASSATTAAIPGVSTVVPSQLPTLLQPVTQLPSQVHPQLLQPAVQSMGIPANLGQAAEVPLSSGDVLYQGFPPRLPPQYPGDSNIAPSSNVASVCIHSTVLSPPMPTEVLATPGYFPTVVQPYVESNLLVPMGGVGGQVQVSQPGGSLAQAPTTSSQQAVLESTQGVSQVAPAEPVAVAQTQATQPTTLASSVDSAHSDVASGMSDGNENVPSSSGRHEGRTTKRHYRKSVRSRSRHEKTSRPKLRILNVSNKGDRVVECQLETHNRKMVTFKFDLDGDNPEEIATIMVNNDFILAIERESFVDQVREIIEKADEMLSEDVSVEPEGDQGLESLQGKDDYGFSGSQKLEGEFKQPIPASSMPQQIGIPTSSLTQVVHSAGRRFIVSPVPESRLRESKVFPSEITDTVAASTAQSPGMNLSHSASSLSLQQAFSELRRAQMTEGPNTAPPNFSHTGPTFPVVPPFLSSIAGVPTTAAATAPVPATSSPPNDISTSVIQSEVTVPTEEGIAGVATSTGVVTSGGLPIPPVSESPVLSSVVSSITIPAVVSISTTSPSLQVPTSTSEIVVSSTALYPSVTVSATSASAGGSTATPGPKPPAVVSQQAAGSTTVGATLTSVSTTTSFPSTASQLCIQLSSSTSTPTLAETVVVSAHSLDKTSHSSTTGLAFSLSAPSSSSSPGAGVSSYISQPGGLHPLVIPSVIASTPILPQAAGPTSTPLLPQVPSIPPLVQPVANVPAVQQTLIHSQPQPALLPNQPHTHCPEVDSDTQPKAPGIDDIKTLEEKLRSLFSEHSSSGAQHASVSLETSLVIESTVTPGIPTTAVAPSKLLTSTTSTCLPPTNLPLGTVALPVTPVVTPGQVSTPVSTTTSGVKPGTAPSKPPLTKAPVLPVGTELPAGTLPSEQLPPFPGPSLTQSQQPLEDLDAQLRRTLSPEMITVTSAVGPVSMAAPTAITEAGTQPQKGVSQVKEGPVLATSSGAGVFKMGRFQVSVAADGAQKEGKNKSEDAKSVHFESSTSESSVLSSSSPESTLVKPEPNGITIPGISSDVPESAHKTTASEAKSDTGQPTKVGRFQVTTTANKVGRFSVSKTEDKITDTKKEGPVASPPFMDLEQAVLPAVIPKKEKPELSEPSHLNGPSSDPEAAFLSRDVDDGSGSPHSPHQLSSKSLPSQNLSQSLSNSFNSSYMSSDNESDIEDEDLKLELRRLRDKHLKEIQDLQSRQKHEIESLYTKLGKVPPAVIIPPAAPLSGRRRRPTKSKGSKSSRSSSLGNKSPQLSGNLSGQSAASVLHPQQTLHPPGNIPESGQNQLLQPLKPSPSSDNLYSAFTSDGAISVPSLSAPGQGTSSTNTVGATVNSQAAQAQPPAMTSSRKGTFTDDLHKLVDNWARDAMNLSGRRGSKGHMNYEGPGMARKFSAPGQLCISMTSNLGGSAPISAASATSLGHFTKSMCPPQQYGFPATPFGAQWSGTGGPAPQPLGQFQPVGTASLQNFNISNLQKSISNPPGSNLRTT
Chain of Tyrosine-protein kinase Lyn (P07948 2-512 limits assumed): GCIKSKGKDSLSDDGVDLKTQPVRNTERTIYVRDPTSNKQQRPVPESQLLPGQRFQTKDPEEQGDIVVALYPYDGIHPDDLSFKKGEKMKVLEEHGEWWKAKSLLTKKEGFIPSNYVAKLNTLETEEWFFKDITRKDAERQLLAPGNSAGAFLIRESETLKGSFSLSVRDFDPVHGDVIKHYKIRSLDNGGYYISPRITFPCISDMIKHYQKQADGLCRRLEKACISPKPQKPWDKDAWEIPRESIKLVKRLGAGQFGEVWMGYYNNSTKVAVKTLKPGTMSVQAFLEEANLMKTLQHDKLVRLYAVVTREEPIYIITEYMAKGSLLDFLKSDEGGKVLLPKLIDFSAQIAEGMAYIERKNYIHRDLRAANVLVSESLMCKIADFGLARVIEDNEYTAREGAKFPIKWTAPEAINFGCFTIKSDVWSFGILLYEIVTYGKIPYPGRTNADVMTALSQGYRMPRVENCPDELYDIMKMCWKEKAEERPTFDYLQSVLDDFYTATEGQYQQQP
Chain of Myosin light chain kinase 2, skeletal/cardiac muscle (Homo sapiens) (Q9H1R3 whole entry): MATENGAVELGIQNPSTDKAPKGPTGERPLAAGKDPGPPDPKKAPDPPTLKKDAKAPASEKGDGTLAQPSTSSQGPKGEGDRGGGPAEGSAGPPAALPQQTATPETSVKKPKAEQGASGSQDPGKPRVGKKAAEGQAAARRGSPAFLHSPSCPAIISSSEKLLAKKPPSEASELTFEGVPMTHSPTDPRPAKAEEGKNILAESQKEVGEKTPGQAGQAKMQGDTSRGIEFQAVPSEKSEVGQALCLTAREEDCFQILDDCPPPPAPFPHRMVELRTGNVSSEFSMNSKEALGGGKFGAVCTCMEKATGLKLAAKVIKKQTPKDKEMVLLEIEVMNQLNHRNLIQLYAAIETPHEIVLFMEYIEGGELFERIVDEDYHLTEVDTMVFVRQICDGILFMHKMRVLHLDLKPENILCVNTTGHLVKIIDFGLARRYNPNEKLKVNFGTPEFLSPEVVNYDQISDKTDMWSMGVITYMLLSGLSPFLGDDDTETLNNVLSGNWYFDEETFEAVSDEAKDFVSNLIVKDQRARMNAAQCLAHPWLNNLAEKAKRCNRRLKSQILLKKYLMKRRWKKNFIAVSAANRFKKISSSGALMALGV
Chain of Receptor tyrosine-protein kinase erbB-2 (P04626 whole entry): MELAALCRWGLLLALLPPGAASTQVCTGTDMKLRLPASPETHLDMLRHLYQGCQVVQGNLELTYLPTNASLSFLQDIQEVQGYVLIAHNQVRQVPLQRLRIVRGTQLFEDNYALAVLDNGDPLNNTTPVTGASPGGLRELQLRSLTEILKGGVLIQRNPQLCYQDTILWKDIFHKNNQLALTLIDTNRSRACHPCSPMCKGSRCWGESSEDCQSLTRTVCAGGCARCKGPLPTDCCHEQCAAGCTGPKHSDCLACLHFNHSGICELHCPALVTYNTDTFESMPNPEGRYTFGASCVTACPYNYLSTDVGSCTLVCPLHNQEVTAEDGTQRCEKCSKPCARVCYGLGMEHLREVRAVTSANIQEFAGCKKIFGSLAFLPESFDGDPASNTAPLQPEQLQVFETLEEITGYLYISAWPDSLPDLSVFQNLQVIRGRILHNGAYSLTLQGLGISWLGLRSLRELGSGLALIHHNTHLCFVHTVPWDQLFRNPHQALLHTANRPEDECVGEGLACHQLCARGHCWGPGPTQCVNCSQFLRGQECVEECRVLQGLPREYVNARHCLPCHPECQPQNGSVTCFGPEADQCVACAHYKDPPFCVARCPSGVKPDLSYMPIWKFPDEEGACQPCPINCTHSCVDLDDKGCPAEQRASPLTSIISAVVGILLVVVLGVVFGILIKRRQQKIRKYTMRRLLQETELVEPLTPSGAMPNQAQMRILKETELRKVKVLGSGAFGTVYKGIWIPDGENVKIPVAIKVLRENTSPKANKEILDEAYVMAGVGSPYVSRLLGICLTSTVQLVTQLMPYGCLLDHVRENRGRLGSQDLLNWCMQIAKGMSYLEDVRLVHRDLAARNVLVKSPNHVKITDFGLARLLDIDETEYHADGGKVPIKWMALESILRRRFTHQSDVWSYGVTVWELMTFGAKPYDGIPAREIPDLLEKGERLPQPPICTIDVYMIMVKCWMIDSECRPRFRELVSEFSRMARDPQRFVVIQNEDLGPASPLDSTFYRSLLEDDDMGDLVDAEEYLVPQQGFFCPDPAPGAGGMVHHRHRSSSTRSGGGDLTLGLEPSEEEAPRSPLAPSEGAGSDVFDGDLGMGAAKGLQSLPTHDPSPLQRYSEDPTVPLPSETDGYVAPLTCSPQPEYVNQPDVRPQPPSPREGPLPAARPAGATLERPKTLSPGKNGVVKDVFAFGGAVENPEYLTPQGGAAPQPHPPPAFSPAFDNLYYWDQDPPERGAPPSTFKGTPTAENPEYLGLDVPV

In [1], `Cc1ccc(-c2ccc3c(ccc4sc5c(c43)NC[C@@H](C)NC5=O)n2)cn1` came in with a % of inhibition of 12%. In the case of `Cc1cc([C@@H](C)Nc2ccccc2C(=O)O)c2nc(N3CCOCC3)cc(=O)n2c1` [AZD-6482], the % of control in experiment [2] came to 100%. Compound `Cc1cc(F)c(C(=O)Nc2cccc(-c3nncn3C(C)C)n2)cc1-n1cnc(C2CC2)c1` yielded a % of control in experiment [3] of 100%. Take `C=CC(=O)Nc1cc(-n2c(=O)ccc3cnc4ccc(-c5ccc(NS(C)(=O)=O)cc5)cc4c32)ccc1C`: the % of control came to 92% in [4] (at 1 µM), 91% in experiment [4] (at 10 µM), 93% in experiment [5] (at 1 µM) and 100% in experiment [5] (at 10 µM).

`Cn1cc(-n2cnc3c(NCc4nc5cc(Cl)c(Cl)cc5[nH]4)nc(N4CCOCC4)nc32)cn1` yielded a % of control in experiment [6] of 8.02%. Take `CC[C@@H]1[C@H](F)C(=O)N[C@@H]1COc1nccc2cc(C(N)=O)c(OC)cc12` [ZIMLOVISERTIB]: the % of inhibition in [7] turned out to be 0.5%. `C=CC(=O)Nc1ccc(C(=O)Nc2[nH]nc3c2CN(C(=O)N[C@H](CN(C)C)c2ccccc2)C3(C)C)cc1`: the % of engagement in experiment [8] (Selectivity number of off-targets 0.0, Selectivity number of targets 233.0, Source Knowledge https://www.sciencedirect.com/science/article/pii/S2451945619300674?via%3Dihub) was -16.3%; in experiment [8], -12.9%. Consider `O[C@H]1CC[C@H](Nc2ncc3nc(Nc4c(F)cc(F)cc4F)n([C@H]4CCOC4)c3n2)CC1`, for which the % of control in experiment [9] was 98%.
